These results are taken from patent publication US20240158392A1 (Janssen Biotech, Inc., priority 2021, published 2024).

Like-named read-outs stand apart in the source and are kept apart here.

The target of this test is SIK2 (Homo sapiens, UniProt Q9H0K1). Kind of test: SIK2 Enzymatic Assay High Version 2 (High ATP). The test is classed as biochemical. How it is done:
All steps were performed at room temperature. Compounds were pre-plated onto an assay plate using an Echo acoustic dispenser (Labcyte, E550 or E555) at 80 nL per well. Enzyme prepared in assay buffer at 6 nM (2× final concentration) was added at 4 μL per well using the Multidrop Combi (Thermo Fisher—used for all additions in this assay) to the assay plate, spun for 1 min at 1000 rpm (Allegra 6KR Beckman Coulter centrifuge), and incubated with compound for 30 minutes. Assay buffer containing 6 mM ATP and 400 μM HDAC5tide (2× of final concentration for each substrate) was added at 4 μL per well to the assay plate and then spun as above and incubated for 2 hours. […] ADP-Glo Max Reagent (prepared and aliquoted as per manufacturer instructions) was then added at 8 μL per well, spun and incubated for 2 hours. ADP-Glo Max Detection (prepared and aliquoted as per manufacturer instructions) was added at 8 μL per well to the assay plate, which was spun and incubated for 1 hour. The plate is then read on the Pherastar (BMG Labtech) using a luminescence read. Gain is set between 2200-2500.

Where [1] appears, read: enzyme 6 nM, 6 mM ATP and 400 μM HDAC5tide (each 2× final concentration), 30 minutes pre-incubation, 2 hours, ADP-Glo Max luminescence, read-out: SIK2 high ATP IC50 (μM) (Test Example 2).

SIK2, sequence (Q9H0K1 whole entry, species assumed): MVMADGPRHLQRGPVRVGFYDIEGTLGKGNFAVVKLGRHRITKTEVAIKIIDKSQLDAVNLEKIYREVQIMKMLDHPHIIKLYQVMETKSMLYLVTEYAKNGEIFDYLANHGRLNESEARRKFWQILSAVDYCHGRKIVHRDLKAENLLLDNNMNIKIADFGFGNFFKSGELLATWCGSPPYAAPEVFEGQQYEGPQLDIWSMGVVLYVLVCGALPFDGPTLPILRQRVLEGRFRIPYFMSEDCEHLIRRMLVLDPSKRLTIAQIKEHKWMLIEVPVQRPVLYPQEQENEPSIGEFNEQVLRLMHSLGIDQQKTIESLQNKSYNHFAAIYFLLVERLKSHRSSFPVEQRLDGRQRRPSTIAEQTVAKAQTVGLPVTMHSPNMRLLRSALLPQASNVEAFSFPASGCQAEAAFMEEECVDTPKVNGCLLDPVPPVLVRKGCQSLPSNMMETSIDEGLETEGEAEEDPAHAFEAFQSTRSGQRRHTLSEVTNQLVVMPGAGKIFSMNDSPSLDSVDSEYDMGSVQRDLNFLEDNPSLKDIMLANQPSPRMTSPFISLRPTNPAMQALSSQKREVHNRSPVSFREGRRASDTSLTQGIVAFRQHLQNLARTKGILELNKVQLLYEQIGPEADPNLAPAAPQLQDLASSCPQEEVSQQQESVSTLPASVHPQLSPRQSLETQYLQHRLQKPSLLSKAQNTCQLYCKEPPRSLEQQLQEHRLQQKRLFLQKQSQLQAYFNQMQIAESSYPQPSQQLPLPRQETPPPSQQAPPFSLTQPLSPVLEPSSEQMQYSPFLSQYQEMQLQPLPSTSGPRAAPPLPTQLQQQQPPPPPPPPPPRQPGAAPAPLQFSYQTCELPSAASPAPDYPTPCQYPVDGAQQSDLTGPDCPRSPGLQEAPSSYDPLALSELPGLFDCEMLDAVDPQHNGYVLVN

What is called IC50 is the midpoint of a concentration-inhibition curve. On to `Cc1cc(-c2ccn3nc(NC(=O)C4CC4)cc3c2)c(OCC2(O)CCC(F)(F)CC2)cn1` (racemic) [Example 188, rac-N-[5-[5-[(4,4-difluoro-1-hydroxy-cyclohexyl)methoxy]-2-methyl-4-pyridyl]pyrazolo[1,5-a]pyridin-2-yl]cyclopropanecarboxamide], for which the IC50 under setting [1] is 0.0478 µM.

With `Cc1cc(-c2ccn3nc(Nc4cc(C)nc(C)n4)cc3c2)c(OC[C@](C)(N)C(F)(F)F)cn1` (racemic) [Example 267, (rac-)-5-[5-(2-amino-3,3,3-trifluoro-2-methyl-propoxy)-2-methyl-4-pyridyl]-N-(2,6-dimethylpyrimidin-4-yl)pyrazolo[1,5-a]pyridin-2-amine], under setting [1], the half-maximal inhibitory concentration (IC50) turned out to be 0.00331 µM. In the case of `Cc1cc(-c2ccn3nc(Nc4cc(C)nc(C)n4)cc3c2)c(OCC2CC(=O)N(C)C2(C)C)cn1` (racemic) [Example 325, (rac)-4-[[4-[2-[(2,6-dimethylpyrimidin-4-yl)amino]pyrazolo[1,5-a]pyridin-5-yl]-6-methyl-3-pyridyl]oxymethyl]-1,5,5-trimethyl-pyrrolidin-2-one], the IC50 under setting [1] was 0.00265 µM. In the case of `Cc1cc(-c2ccn3nc(Nc4cc(C)nc(C)n4)cc3c2)c(OCC2CNS(=O)(=O)N2)cn1` (racemic) [Example 352, (rac-)-N-(2,6-dimethylpyrimidin-4-yl)-5-[5-[(1,1-dioxo-1,2,5-thiadiazolidin-3-yl)methoxy]-2-methyl-4-pyridyl]pyrazolo[1,5-a]pyridin-2-amine], the half-inhibitory concentration (IC50) was 0.0031 µM. Same read-out and setting: the same measure for `Cc1cc(-c2ccn3nc(Nc4cc(C)nc(C)n4)cc3c2)c(OCC2CCS(=O)(=O)N2)cn1` (racemic) [Example 353, (rac-)-N-(2,6-dimethylpyrimidin-4-yl)-5-[5-[(1,1-dioxo-1,2-thiazolidin-3-yl)methoxy]-2-methyl-4-pyridyl]pyrazolo[1,5-a]pyridin-2-amine]: 0.0451 µM.

Consider `Cc1cc(-c2ccn3nc(NC(=O)C4CC4)cc3c2)c(OCC2NCC2(F)F)cn1` (racemic) [Example 469, rac-N-[5-[5-[(3,3-difluoroazetidin-2-yl)methoxy]-2-methyl-4-pyridyl]pyrazolo[1,5-a]pyridin-2-yl]cyclopropanecarboxamide], for which the half-maximal inhibitory concentration (IC50) was 0.00448 µM. Same read-out and setting: the figure for `Cc1cc(-c2ccn3nc(NC(=O)C4CC4)cc3c2)c(OCC2NCC23CCOCC3)cn1` (racemic) [Example 472, Racemic-N-[5-[2-methyl-5-(7-oxa-2-azaspiro[3.5]nonan-3-ylmethoxy)-4-pyridyl]pyrazolo[1,5-a]pyridin-2-yl]cyclopropanecarboxamide] is 0.0263 µM. Take `Cc1cc(-c2ccn3nc(Nc4cc(C)nc(C)n4)cc3c2)c(OCC2CC(=O)N(C)C2)cn1` (racemic) [Example 542, (rac-)-4-[[4-[2-[(2,6-dimethylpyrimidin-4-yl)amino]pyrazolo[1,5-a]pyridin-5-yl]-6-methyl-3-pyridyl]oxymethyl]-1-methyl-pyrrolidin-2-one]: under setting [1], the 50% inhibitory concentration (IC50) stood at 0.0425 µM. The same measure, in the same setting: the same measure for `CO[C@H]1CN(C)C[C@@H]1COc1cnc(C)cc1-c1ccn2nc(NC(=O)C3CC3)cc2c1` (racemic) [Example 571, (3RS, 4RS)—N-[5-[5-[(4-methoxy-1-methyl-pyrrolidin-3-yl)methoxy]-2-methyl-4-pyridyl]pyrazolo[1,5-a]pyridin-2-yl]cyclopropanecarboxamide]: 0.165 µM. On to `CC[C@@H]1NC[C@@H]1Oc1cnc(C)cc1-c1ccn2nc(NC(=O)C3CC3)cc2c1` (relative stereo) [Example 453, (*S, *S)—N-[5-[5-(2-ethylazetidin-3-yl)oxy-2-methyl-4-pyridyl]pyrazolo[1,5-a]pyridin-2-yl]cyclopropanecarboxamide], for which the 50% inhibitory concentration (IC50) came out at 0.0334 µM. The same measure, in the same setting: the figure for `Cc1cc(-c2ccn3nc(NC(=O)C4CC4)cc3c2)c(O[C@@H]2CN(C)[C@@H]2C)cn1` (relative stereo) [Example 455, *R, *R—N-[5-[5-(1,2-dimethylazetidin-3-yl)oxy-2-methyl-4-pyridyl]pyrazolo[1,5-a]pyridin-2-yl]cyclopropanecarboxamide] is 0.0356 µM.

As for `CO[C@H]1CNC[C@@H]1COc1cnc(C)cc1-c1ccn2nc(NC(=O)C3CC3)cc2c1` (relative stereo) [Example 458, Trans-*R, *R—N-[5-[5-[(4-methoxypyrrolidin-3-yl)methoxy]-2-methyl-4-pyridyl]pyrazolo[1,5-a]pyridin-2-yl]cyclopropanecarboxamide], the 50% inhibitory concentration (IC50) under setting [1] worked out at 0.00555 µM.

`Cc1cc(Nc2cc3cc(-c4cc(O[C@H](C)C#N)ncc4O[C@H]4CC[C@H](O)CC4)ccn3n2)nc(C)n1` (relative stereo) [Example 721, (*R)-2-[[4-[2-[(2,6-dimethylpyrimidin-4-yl)amino]pyrazolo[1,5-a]pyridin-5-yl]-5-(4-hydroxycyclohexoxy)-2-pyridyl]oxy]propanenitrile]: under setting [1], the IC50 was 0.0261 µM. Still for that read-out and setting: the same measure for `Cc1cc(-c2ccn3nc(NC(=O)C4CC4)cc3c2)c(OCC(C)(N)C(F)(F)F)cn1` (single isomer, unassigned) [Example 159, (*R)—N-[5-[5-(2-amino-3,3,3-trifluoro-2-methyl-propoxy)-2-methyl-4-pyridyl]pyrazolo[1,5-a]pyridin-2-yl]cyclopropanecarboxamide]: 0.0107 µM. The same measure, in the same setting: the same measure for `Cc1cc(-c2ccn3nc(NC(=O)C4CC4)cc3c2)c(OCC(C)(N)C(F)(F)F)cn1` (single isomer, unassigned) [Example 160, (*S)—N-[5-[5-(2-amino-3,3,3-trifluoro-2-methyl-propoxy)-2-methyl-4-pyridyl]pyrazolo[1,5-a]pyridin-2-yl]cyclopropanecarboxamide]: 0.0444 µM; for `Cc1cc(-c2ccn3nc(NC(=O)C4CC4)cc3c2)c(OC[C@@](C)(O)C(F)(F)F)cn1` (single isomer, unassigned) [Example 189, (*R)—N-(5-(2-methyl-5-(3,3,3-trifluoro-2-hydroxy-2-methylpropoxy)pyridin-4-yl)pyrazolo[1,5-a]pyridin-2-yl)cyclopropanecarboxamide]: 0.0367 µM. The same measure, in the same setting: the same measure for `Cc1cc(-c2ccn3nc(NC(=O)C4CC4)cc3c2)c(OC[C@](C)(O)C(F)(F)F)cn1` (single isomer, unassigned) [Example 190, (*S)—N-(5-(2-methyl-5-(3,3,3-trifluoro-2-hydroxy-2-methylpropoxy)pyridin-4-yl)pyrazolo[1,5-a]pyridin-2-yl)cyclopropanecarboxamide]: 0.0255 µM.

Regarding `Cc1cc(-c2ccn3nc(NC(=O)C4CC4)cc3c2)c(OC[C@](C)(O)C2CC2)cn1` (single isomer, unassigned) [Example 193, (*R)—N-(5-(5-(2-cyclopropyl-2-hydroxypropoxy)-2-methylpyridin-4-yl)pyrazolo[1,5-a]pyridin-2-yl)cyclopropanecarboxamide], the IC50 under setting [1] came out at 0.0234 µM. Still for that read-out and setting: the figure for `Cc1cc(-c2ccn3nc(NC(=O)C4CC4)cc3c2)c(O[C@@H]2CCC[C@@H](O)C2)cn1` (single isomer, unassigned) [Example 194, trans-N-(5-(5-(((1*R,3*R)-3-hydroxycyclohexyl)oxy)-2-methylpyridin-4-yl)pyrazolo[1,5-a]pyridin-2-yl)cyclopropanecarboxamide] is 0.0412 µM. Still for that read-out and setting: the figure for `Cc1cc(-c2ccn3nc(NC(=O)C4CC4)cc3c2)c(O[C@H]2CCC[C@H](O)C2)cn1` (single isomer, unassigned) [Example 195, trans-N-(5-(5-(((1*S,3*S)-3-hydroxycyclohexyl)oxy)-2-methylpyridin-4-yl)pyrazolo[1,5-a]pyridin-2-yl)cyclopropanecarboxamide] is 0.0116 µM.
